According to ChEMBL document CHEMBL4304811, “Development of a Water-Soluble Indolylmaleimide Derivative IM-93 Showing Dual Inhibition of Ferroptosis and NETosis” (ACS Med Chem Lett, 2019):

Legend:
[1] = target: Epidermal growth factor receptor (Homo sapiens) (UniProt P00533); test: Binding affinity to wild-type human partial length EGFR (R669 to V1011 residues) expressed in bacterial expression system assessed as residual binding level at 10 uM by Kinomescan method relative to control
[2] = target: Serine/threonine-protein kinase Nek7 (Homo sapiens) (UniProt Q8TDX7); test: Binding affinity to wild-type human full length NEK7 (M1 to S302 residues) expressed in bacterial expression system assessed as residual binding level at 10 uM by Kinomescan method relative to control
[3] = target: Dual specificity protein kinase CLK1 (Homo sapiens) (UniProt P49759); test: Binding affinity to wild-type human full length CLK1 (M1 to I484 residues) expressed in bacterial expression system assessed as residual binding level at 10 uM by Kinomescan method relative to control
[4] = target: Macrophage colony-stimulating factor 1 receptor (Homo sapiens) (UniProt P07333); test: Binding affinity to wild-type human partial length autoinhibited CSF1R (Y538 to S939 residues) expressed in mammalian expression system assessed as residual binding level at 10 uM by Kinomescan method relative to control
[5] = target: Serine/threonine-protein kinase DCLK1 (Homo sapiens) (UniProt O15075); test: Binding affinity to wild-type human partial length DCAMKL1 (L270 to A662 residues) expressed in mammalian expression system assessed as residual binding level at 10 uM by Kinomescan method relative to control
[6] = target: Mitogen-activated protein kinase 3 (Homo sapiens) (UniProt P27361); test: Binding affinity to wild-type human full length ERK1 (M1 to P379 residues) expressed in bacterial expression system assessed as residual binding level at 10 uM by Kinomescan method relative to control
[7] = target: Serine/threonine-protein kinase MARK2 (Homo sapiens) (UniProt Q7KZI7); test: Binding affinity to wild-type human partial length MARK2 (M1 to R450 residues) expressed in bacterial expression system assessed as residual binding level at 10 uM by Kinomescan method relative to control
[8] = target: Cyclin-dependent kinase 4/cyclin D1 (Homo sapiens) (UniProt P11802+P24385); test: Binding affinity to wild-type human full length CDK4/cyclinD1 (M1 to E303 residues) expressed in mammalian expression system assessed as residual binding level at 10 uM by Kinomescan method relative to control
[9] = target: Serine/threonine-protein kinase MAK (Homo sapiens) (UniProt P20794); test: Binding affinity to wild-type human partial length MAK (M1 to P314 residues) expressed in bacterial expression system assessed as residual binding level at 10 uM by Kinomescan method relative to control
[10] = target: Dual specificity mitogen-activated protein kinase kinase 3 (Homo sapiens) (UniProt P46734); test: Binding affinity to wild-type human full length MEK3 (M1 to S318 residues) expressed in mammalian expression system assessed as residual binding level at 10 uM by Kinomescan method relative to control
[11] = target: Tyrosine-protein kinase ABL1 (Homo sapiens) (UniProt P00519); test: Binding affinity to wild-type human phosphorylated ABL1 (S229 to K512 residues) expressed in mammalian expression system assessed as residual binding level at 10 uM by Kinomescan method relative to control
[12] = target: Mitotic checkpoint serine/threonine-protein kinase BUB1 (Homo sapiens) (UniProt O43683); test: Binding affinity to wild-type human partial length BUB1 (Q724 to K1085 residues) expressed in mammalian expression system assessed as residual binding level at 10 uM by Kinomescan method relative to control
[13] = system: Tyrosine-protein kinase ABL1 (Homo sapiens), P00519 [H396P]; test: Binding affinity to human phosphorylated ABL1 H396P mutant (S229 to K512 residues) expressed in mammalian expression system assessed as residual binding level at 10 uM by Kinomescan method relative to control
[14] = target: Rhodopsin kinase GRK7 (Homo sapiens) (UniProt Q8WTQ7); test: Binding affinity to wild-type human full length GRK7 (M1 to L553 residues) expressed in mammalian expression system assessed as residual binding level at 10 uM by Kinomescan method relative to control
[15] = target: Calcium/calmodulin-dependent protein kinase type 1D (Homo sapiens) (UniProt Q8IU85); test: Binding affinity to wild-type human partial length CAMK1D (M1 to K299 residues) expressed in bacterial expression system assessed as residual binding level at 10 uM by Kinomescan method relative to control
[16] = target: LIM domain kinase 1 (Homo sapiens) (UniProt P53667); test: Binding affinity to wild-type human full length LIMK1 (M1 to D647 residues) expressed in bacterial expression system assessed as residual binding level at 10 uM by Kinomescan method relative to control
[17] = target: Serine/threonine-protein kinase PAK 4 (Homo sapiens) (UniProt O96013); test: Binding affinity to wild-type human partial length PAK4 (Q144 to R438 residues) expressed in bacterial expression system assessed as residual binding level at 10 uM by Kinomescan method relative to control
[18] = target: Cyclin-dependent kinase 11A (Homo sapiens) (UniProt Q9UQ88); test: Binding affinity to wild-type human partial length CDC2L2 (D391 to K730 residues) expressed in bacterial expression system assessed as residual binding level at 10 uM by Kinomescan method relative to control
[19] = target: Dual specificity mitogen-activated protein kinase kinase 5 (Homo sapiens) (UniProt Q13163); test: Binding affinity to wild-type human partial length MEK5 (L98 to P448 residues) expressed in mammalian expression system assessed as residual binding level at 10 uM by Kinomescan method relative to control
[20] = target: Leukocyte tyrosine kinase receptor (Homo sapiens) (UniProt P29376); test: Binding affinity to wild-type human partial length LTK (P422 to S744 residues) expressed in bacterial expression system assessed as residual binding level at 10 uM by Kinomescan method relative to control
[21] = system: Hepatocyte growth factor receptor (Homo sapiens), P08581 [M1250T]; test: Binding affinity to human partial length MET M1250T mutant (D1010 to S1367 residues) expressed in bacterial expression system assessed as residual binding level at 10 uM by Kinomescan method relative to control
[22] = target: Mitogen-activated protein kinase 9 (Homo sapiens) (UniProt P45984); test: Binding affinity to wild-type human full length JNK2 (M1 to Q382 residues) expressed in mammalian expression system assessed as residual binding level at 10 uM by Kinomescan method relative to control
[23] = target: Casein kinase I isoform gamma-1 (Homo sapiens) (UniProt Q9HCP0); test: Binding affinity to wild-type human partial length CSNK1G1 (T15 to S353 residues) expressed in bacterial expression system assessed as residual binding level at 10 uM by Kinomescan method relative to control
[24] = target: Casein kinase II subunit alpha (Homo sapiens) (UniProt P68400); test: Binding affinity to wild-type human full length CSNK2A1 (M1 to Q391 residues) expressed in mammalian expression system assessed as residual binding level at 10 uM by Kinomescan method relative to control
Chain of Casein kinase II subunit alpha (Homo sapiens) (P68400 whole entry, looked up, the tested form may be a part): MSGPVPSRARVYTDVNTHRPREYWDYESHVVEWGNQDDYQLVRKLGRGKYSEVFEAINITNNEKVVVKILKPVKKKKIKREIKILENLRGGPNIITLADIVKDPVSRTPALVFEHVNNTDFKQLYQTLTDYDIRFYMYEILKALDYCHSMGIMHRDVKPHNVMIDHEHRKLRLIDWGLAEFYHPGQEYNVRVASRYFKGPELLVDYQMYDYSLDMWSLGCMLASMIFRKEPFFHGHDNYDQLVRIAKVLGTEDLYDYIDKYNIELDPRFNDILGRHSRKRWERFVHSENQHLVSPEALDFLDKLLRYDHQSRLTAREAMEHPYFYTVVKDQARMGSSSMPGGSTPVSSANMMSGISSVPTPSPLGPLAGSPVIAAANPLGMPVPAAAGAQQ

Chain of Leukocyte tyrosine kinase receptor (Homo sapiens) (P29376 whole entry, the tested form may be a part): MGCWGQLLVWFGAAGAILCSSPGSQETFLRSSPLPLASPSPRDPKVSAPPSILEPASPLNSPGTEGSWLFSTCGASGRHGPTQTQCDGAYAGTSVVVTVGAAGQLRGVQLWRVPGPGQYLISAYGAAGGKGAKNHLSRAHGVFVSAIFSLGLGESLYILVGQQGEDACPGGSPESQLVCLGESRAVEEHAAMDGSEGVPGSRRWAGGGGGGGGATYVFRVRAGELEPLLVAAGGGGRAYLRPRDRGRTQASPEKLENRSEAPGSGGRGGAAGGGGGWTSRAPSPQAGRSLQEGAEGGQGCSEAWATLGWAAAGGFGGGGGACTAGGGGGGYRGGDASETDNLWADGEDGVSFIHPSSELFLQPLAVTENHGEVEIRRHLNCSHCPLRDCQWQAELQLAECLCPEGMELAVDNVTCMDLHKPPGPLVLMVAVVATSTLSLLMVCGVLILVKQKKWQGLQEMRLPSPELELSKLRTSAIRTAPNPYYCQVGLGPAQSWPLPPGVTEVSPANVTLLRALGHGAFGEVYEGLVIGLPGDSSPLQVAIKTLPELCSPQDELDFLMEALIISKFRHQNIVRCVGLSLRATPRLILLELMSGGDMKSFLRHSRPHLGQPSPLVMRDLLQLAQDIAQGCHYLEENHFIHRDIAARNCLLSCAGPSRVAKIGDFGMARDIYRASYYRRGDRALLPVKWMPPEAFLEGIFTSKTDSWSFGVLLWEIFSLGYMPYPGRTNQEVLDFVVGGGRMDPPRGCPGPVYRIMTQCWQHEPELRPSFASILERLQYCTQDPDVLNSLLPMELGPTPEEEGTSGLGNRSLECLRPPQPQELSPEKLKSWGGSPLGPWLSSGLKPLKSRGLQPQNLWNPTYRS
Chain of Casein kinase I isoform gamma-1 (Homo sapiens) (Q9HCP0 whole entry, looked up, the tested form may be a part, canonical isoform): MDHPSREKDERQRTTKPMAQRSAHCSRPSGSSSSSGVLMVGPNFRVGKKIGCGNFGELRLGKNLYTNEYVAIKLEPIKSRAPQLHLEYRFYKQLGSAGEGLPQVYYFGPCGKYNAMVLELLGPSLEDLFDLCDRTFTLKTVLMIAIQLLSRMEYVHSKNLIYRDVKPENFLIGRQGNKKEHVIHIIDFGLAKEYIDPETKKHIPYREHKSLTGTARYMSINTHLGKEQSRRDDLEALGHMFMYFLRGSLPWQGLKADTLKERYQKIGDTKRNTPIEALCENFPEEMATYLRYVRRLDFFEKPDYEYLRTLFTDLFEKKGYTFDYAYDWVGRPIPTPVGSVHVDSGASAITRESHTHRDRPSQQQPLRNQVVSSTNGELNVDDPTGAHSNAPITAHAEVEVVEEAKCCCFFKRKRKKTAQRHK
Chain of Cyclin-dependent kinase 11A (Homo sapiens) (Q9UQ88 whole entry, the tested form may be a part): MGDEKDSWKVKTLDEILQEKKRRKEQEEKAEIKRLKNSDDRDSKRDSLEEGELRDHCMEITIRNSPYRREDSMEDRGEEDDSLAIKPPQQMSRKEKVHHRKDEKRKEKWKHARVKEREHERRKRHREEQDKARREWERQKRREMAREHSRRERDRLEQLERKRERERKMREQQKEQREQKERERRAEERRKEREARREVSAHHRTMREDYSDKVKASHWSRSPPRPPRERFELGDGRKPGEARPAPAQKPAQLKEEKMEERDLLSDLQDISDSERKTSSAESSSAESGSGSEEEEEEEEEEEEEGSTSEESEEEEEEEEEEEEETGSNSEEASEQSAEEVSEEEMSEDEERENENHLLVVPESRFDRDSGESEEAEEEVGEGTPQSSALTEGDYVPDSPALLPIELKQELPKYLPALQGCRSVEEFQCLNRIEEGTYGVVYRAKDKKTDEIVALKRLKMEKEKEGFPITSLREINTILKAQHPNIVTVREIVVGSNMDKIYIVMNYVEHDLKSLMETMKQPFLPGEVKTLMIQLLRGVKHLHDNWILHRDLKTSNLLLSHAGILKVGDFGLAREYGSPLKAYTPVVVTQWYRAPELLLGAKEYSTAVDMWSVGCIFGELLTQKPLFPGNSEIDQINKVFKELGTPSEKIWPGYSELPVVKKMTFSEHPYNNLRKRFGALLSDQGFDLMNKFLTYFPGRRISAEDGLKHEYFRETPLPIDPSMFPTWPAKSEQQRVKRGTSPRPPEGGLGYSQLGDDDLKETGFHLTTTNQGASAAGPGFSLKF
Chain of Serine/threonine-protein kinase MARK2 (Homo sapiens) (Q7KZI7 whole entry, the tested form may be a part): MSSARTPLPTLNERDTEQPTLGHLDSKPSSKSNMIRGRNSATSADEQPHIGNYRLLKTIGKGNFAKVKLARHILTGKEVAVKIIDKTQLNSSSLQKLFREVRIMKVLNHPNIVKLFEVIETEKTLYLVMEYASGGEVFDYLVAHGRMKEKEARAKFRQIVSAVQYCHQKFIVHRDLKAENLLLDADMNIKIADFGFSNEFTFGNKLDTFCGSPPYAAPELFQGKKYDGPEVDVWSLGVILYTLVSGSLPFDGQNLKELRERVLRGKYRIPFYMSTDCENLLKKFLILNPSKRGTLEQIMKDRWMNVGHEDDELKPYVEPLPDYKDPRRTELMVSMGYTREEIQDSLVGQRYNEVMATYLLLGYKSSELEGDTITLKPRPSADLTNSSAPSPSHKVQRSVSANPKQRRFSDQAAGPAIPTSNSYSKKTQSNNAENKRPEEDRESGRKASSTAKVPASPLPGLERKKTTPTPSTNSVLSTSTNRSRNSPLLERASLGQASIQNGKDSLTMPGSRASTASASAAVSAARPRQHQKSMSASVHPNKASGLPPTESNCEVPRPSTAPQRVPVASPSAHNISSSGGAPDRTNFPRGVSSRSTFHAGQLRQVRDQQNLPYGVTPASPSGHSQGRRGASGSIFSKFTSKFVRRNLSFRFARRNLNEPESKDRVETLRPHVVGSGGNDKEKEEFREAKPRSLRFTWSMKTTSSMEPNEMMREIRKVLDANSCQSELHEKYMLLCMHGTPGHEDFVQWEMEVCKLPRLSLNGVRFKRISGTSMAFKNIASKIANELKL
Chain of Dual specificity mitogen-activated protein kinase kinase 3 (Homo sapiens) (P46734 whole entry, the tested form may be a part): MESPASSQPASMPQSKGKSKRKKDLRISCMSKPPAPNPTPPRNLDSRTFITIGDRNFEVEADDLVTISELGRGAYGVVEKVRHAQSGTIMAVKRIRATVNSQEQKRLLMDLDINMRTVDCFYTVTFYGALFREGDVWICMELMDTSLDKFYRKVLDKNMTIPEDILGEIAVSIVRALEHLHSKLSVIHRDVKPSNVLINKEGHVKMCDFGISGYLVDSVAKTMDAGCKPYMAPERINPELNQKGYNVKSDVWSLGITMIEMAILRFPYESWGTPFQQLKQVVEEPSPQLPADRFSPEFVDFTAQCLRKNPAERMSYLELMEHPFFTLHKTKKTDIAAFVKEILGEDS
Chain of Rhodopsin kinase GRK7 (Homo sapiens) (Q8WTQ7 whole entry, the tested form may be a part): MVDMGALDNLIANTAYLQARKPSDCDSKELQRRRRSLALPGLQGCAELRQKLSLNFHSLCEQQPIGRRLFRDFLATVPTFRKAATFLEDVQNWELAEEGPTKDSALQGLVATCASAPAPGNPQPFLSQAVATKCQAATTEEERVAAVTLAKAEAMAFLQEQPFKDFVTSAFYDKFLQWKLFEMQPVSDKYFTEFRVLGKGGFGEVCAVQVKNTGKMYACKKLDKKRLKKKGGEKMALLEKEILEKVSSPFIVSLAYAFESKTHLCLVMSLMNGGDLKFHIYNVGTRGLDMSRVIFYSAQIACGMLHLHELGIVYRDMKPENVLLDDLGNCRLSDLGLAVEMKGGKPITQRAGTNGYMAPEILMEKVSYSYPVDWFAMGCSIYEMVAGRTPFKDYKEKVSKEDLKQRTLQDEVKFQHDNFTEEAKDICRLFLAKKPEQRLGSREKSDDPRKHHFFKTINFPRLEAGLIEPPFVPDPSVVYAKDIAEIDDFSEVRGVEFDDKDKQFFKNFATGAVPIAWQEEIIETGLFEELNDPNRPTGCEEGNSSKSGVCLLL
Chain of LIM domain kinase 1 (Homo sapiens) (P53667 whole entry, looked up, the tested form may be a part): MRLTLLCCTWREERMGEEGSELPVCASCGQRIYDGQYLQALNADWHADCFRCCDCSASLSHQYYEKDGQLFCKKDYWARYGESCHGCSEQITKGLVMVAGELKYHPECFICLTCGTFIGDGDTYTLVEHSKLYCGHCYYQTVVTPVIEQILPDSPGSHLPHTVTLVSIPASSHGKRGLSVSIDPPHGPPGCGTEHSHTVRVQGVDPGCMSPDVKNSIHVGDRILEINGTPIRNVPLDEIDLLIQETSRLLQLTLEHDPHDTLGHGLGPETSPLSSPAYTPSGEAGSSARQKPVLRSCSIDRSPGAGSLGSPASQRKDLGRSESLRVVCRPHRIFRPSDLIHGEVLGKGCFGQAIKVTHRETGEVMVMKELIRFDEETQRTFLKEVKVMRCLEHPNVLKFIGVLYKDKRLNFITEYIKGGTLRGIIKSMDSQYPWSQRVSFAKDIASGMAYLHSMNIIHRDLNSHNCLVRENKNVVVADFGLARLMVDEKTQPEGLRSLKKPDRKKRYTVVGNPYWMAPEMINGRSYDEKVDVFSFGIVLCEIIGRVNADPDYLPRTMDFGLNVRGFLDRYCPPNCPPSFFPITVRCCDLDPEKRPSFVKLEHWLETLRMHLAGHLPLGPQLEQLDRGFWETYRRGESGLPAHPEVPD

For CC(C)N1C(=O)C(NCCCN(C)C)=C(c2cn(C)c3ccccc23)C1=O.Cl, the Activity [1] was 89%, the Activity [2] was 95% and the Activity [3] was 98%. For the same molecule, the Activity [4] was 87%, the Activity [5] was 94% and the Activity [6] was 87%. It also gave an Activity [7] of 93%, an Activity [8] of 88% and an Activity [9] of 100%. For the same molecule, the Activity [10] was 97%, the Activity [11] was 92% and the Activity [12] was 92%. For the same molecule, the Activity [13] was 93%, the Activity [14] was 97% and the Activity [15] was 83%. For the same molecule, the Activity [16] was 100%, the Activity [17] was 89% and the Activity [18] was 96%. The Activity [19] was 77%, the Activity [20] was 100% and the Activity [21] was 100%. The Activity [22] was 80%, the Activity [23] was 89% and the Activity [24] was 98%.
